From patent US9827320B2, “Compositions with reduced bitter taste perception” (The Procter & Gamble Company, priority 2014, dated 2017)
Counter-ions that a name gives are not always drawn.

System: Human fungiform taste bud cells
Experiment: Assay for Taste Receptors (calcium fluorescence, FLIPR)
Assay type: cell-based
Settings: without polyquaternium-2
[1] = FIG. 5B, 0.5 mM 1,10-phenanthroline, 0.5 mM saccharin, 3% propylene glycol

Row | Structure (SMILES) | bitterness of the component itself [1] | bitterness of the component itself (FIG. 5C, 2 mM)
1 | c1cnc2c(c1)ccc1cccnc12 [1,10-phenanthroline] | very bitter | –
2 | CNC(N)=S [N-methylthiourea] | – | only slightly bitter
3 | N#C[C@H](O[C@@H]1O[C@H](CO[C@@H]2O[C@H](CO)[C@@H](O)[C@H](O)[C@H]2O)[C@@H](O)[C@H](O)[C@H]1O)c1ccccc1 [amygdalin] | – | only slightly bitter
4 | N=C(NCCCCCCNC(=N)NC(=N)Nc1ccc(Cl)cc1)NC(=N)Nc1ccc(Cl)cc1 [chlorhesidice] | – | only slightly bitter
5 | Cc1ccccc1C(OCCN(C)C)c1ccccc1 (stereo not drawn) [orphenadrine hydrochloride] | – | most bitter component
6 | CCN(CC)CCNC(=O)c1ccc(N)cc1 [procainamide hydrochloride] | – | only slightly bitter
7 | CC(O)CO (stereo not drawn) [propylene glycol] | very bitter | –
8 | O=C1NS(=O)(=O)c2ccccc21 [saccharin] | very bitter | –
9 | O=C1CCCCCN1 [ε-Caprolactam] | – | only slightly bitter
